Test [1] addresses T1, HCV polymerase (NS5B) type 1a (Hepatitis C virus genotype 1a, UniProt P26664).
T1 construct: made in house; host or cells: Escherichia coli (by the 'similar method' of the 1b enzyme)
Nature of the test: Assay of enzyme (HCV polymerase) inhibitory activity, type 1a enzyme. The class given is biochemical, HCV type 1a (cloned from the blood of patients). As to conditions: HCV polymerase inhibitory activity IC50, 1a, type 1a enzyme. An outline of the steps:
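NS5B Δ47 C-term His6 (type 1a, 1.5 μg/ml); substrate RNA 5 μg/ml; ATP/GTP/CTP 50 μM, UTP 2 μM + [5,6-3H]UTP; Tris pH 7.5, MgCl2 5 mM; 25° C, 60 min. TCA/pyrophosphate stop, GF/B filter, scintillation. IC50 vs no-compound control.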

Test [2] deals with T2, HCV polymerase (NS5B) type 1b (Hepatitis C virus genotype 1b, UniProt P26663).
T2 construct: a region encoding NS5B (J Virol 1991 March, 65(3), 1105-13, 544 amino acids after deletion of 47 amino acids on the C-terminal); 6xHis (C); made in house; host or cells: Escherichia coli
Nature of the test: Assay of enzyme (HCV polymerase) inhibitory activity, type 1b enzyme. The class given is biochemical, HCV BK strain (type 1b). The note with it: HCV polymerase inhibitory activity IC50, 1b, type 1b enzyme. The method in brief:
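Rxn: NS5B 1b (BK, ΔC47, His6) 0.5 μg/ml; substrate RNA 5 μg/ml; ATP/GTP/CTP 50 μM, UTP 2 μM + [5,6-3H]UTP; 20 mM Tris pH 7.5, 5 mM MgCl2, 50 mM NaCl, 1 mM EDTA/DTT. 25 °C, 60 min. Stop with TCA/pyrophosphate, filter, scintillation count; IC50 vs. untreated.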

The IC50 is the concentration at which inhibition is half-maximal. High values mean lower potency, low ones higher potency.

Consider `O=C(NCc1ccc(OC(F)(F)F)cc1)[C@H]1CN(c2nc3ccc(=O)[nH]c3s2)CCN1S(=O)(=O)c1ccc(C(F)(F)F)cc1` [Example 1086, (R)-4-(5-oxo-4,5-dihydro-thiazolo[5,4-b]pyridin-2-yl)-1-(4-trifluoromethyl-benzenesulfonyl)-piperazine-2-carboxylic acid 4-trifluoromethoxy-benzylamide], for which the half-inhibitory concentration (IC50) in test [1] and in test [2] was below 100 nM throughout.
Turning to `O=C(NCc1ccc(OC(F)(F)F)cc1)[C@H]1CN(c2nc3nc(OC(F)F)ncc3s2)CCN1S(=O)(=O)c1ccc(OC(F)(F)F)cc1` [Example 1087, (R)-4-(5-difluoromethoxy-thiazolo[4,5-d]pyrimidin-2-yl)-1-(4-trifluoromethoxy-benzenesulfonyl)-piperazine-2-carboxylic acid 4-trifluoromethoxy-benzylamide], the IC50 in test [1] and in test [2] was below 100 nM throughout.
With `CC(C)c1cc(=O)nc2sc(N3CCN(S(=O)(=O)c4ccc(OC(F)(F)F)cc4)[C@@H](C(=O)NCc4ccc(OC(F)(F)F)cc4)C3)nn12` [Example 1088, (R)-4-(5-isopropyl-7-oxo-7H-[1,3,4]thiadiazolo[3,2-a]pyrimidin-2-yl)-1-(4-trifluoromethoxy-benzenesulfonyl)-piperazine-2-carboxylic acid 4-trifluoromethoxy-benzylamide], the IC50 in test [1] and in test [2] was below 100 nM each time.
For the compound `CC(C)c1cc(=O)nc2sc(N3CCN(S(=O)(=O)c4ccc(OC(F)(F)F)cc4)[C@@H](C(=O)NCc4ccc(OC(F)F)cc4)C3)nn12` [Example 1089, (R)-4-(5-isopropyl-7-oxo-7H-[1,3,4]thiadiazolo[3,2-a]pyrimidin-2-yl)-1-(4-trifluoromethoxy-benzenesulfonyl)-piperazine-2-carboxylic acid 4-difluoromethoxy-benzylamide], the 50% inhibitory concentration (IC50) in test [1] and in test [2] was below 100 nM in each case.
Take `Nc1nc(C2CC2)nc2nc(N3CCN(S(=O)(=O)c4ccc(OC(F)(F)F)cc4)[C@@H](C(=O)NCc4ccc(OC(F)(F)F)cc4)C3)sc12` [Example 1090, (R)-4-(7-amino-5-cyclopropyl-thiazolo[4,5-d]pyrimidin-2-yl)-1-(4-trifluoromethoxy-benzenesulfonyl)-piperazine-2-carboxylic acid 4-trifluoromethoxy-benzylamide]: the IC50 in test [1] and in test [2] was below 100 nM throughout.
With `CC(C)(O)c1nc(N)c2sc(N3CCN(S(=O)(=O)c4ccc(OC(F)(F)F)cc4)[C@@H](C(=O)NCc4ccc(OC(F)(F)F)cc4)C3)nc2n1` [Example 1091, (R)-4-[7-amino-5-(1-hydroxy-1-methyl-ethyl)-thiazolo[4,5-d]pyrimidin-2-yl]-1-(4-trifluoromethoxy-benzenesulfonyl)-piperazine-2-carboxylic acid 4-trifluoromethoxy-benzylamide], the concentration for half-maximal inhibition (IC50) in test [1] and in test [2] was below 100 nM throughout.
Take `CCCc1ccc(CNC(=O)[C@H]2CN(c3nc(C)c(C(O)C(=O)O)s3)CCN2S(=O)(=O)c2ccc(OC(F)(F)F)cc2)cc1` (stereo partly drawn) [Example 1092, hydroxy-{4-methyl-2-[(R)-3-(4-propyl-benzylcarbamoyl)-4-(4-trifluoromethoxy-benzenesulfonyl)-piperazin-1-yl]-thiazol-5-yl}-acetic acid]: the 50% inhibitory concentration (IC50) in test [1] is 100 to 1000 nM; in test [2], below 100 nM.
In the same order, the values of `CCN(C)c1ccc(CNC(=O)[C@H]2CN(c3nc(Cl)c(C(=O)O)s3)CCN2S(=O)(=O)c2ccc(OC(F)(F)F)cc2)cc1` [Example 1093, 4-chloro-2-[(R)-3-[4-(ethyl-methyl-amino)-benzylcarbamoyl]-4-(4-trifluoromethoxy-benzenesulfonyl)-piperazin-1-yl]-thiazole-5-carboxylic acid] are below 100 nM and below 100 nM.
